Patent publication US11872199B2, “Topical formulations of cyclooxygenase inhibitors and their use” (SMARTECH TOPICAL, INC., priority 2019, dated 2024)

Columns and labels:
[1] = Franz diffusion cell skin permeation testing of diclofenac formulations; format: in vitro ADME, human; conditions: Example 7, as permeation enhancer in 2% diclofenac formulation
Experimental: Franz diffusion cell experiments were used to analyze flux rates of diclofenac from compositions taught under the present disclosure across human skin. See, e.g., Bartosova and Bajgar, Transdermal Drug Delivery In Vitro Using Diffusion Cells, Curr. Med. Chem. 2012, 19: 4671-4677.
In the examples described herein, Franz diffusion cells (“FDC”s) with a 3.3 mL receptor well volume were used, with either porcine skin or human cadaver skin. For human cadaver skin, split thickness human cadaver skin (0.015″-0.018″) was obtained from AlloSource (Centennial, Colo.) or Skin Bank New York Firefighters (New York, N.Y.). The skin tissue was dermatomed by the tissue bank to a thickness of some 250 μm and shipped frozen on dry ice. […]
The integrity and quality of each skin piece was tested prior to application of the test formulations through measurement of the transdermal flux of tritiated water or of the transepidermal electrical resistance (“TEER”) (skin integrity was usually not tested on porcine skin pieces). […] An alternating current (“AC”) signal, 100 mV root mean square (“RMS”) at 100 Hz, was applied across the skin using a waveform generator and the impedance is then measured with a digital multimeter and the results recorded in kΩ. Any FDC showing anomalously low impedance (nominally <2 kΩ) was discarded and the FDCs were ranked according to the magnitudes of the measured impedance readings. […]

[2] = printed as negative log P; cited from earlier work

| effect on penetration of diclofenac [1] | Compound | log P [2] |
| --- | --- | --- |
| enhance penetration of diclofenac | CCCCCCCC/C=C\CCCCCCCC(=O)O [Oleic Acid, cis-9-octadecenoic acid] |  |
| enhance penetration of diclofenac | CCCCCCCC/C=C\CCCCCCCCO [Oleyl Alcohol, oleyl alcohol] |  |
|  | CCOCCOCCO [Transcutol, 2-(2-Ethoxyethoxy)ethanol] | ~-0.5 |
